Experimental data from patent publication US10457677B2 (priority 2015, dated 2019).
pIC50: −log10 of the molar value.

Biological target: purified human recombinant ATM (ataxia telangiectasia mutated), full length (Homo sapiens (Human), UniProt Q13315)
Assay: ATM kinase assay - determination of ATM inhibition (IC50 ATM), TR-FRET
Format: biochemical
Settings: 10 μM ATP, substrate p53
Experimental: ATM kinase assay—determination of ATM inhibition (IC50 ATM):
The IC50 value was determined with the aid of a biochemical ATM kinase assay. The assay consists of two steps: the enzymatic reaction and the detection step. Firstly, ATM (ataxia telangiectasia mutated) protein and the test substance are incubated at different concentrations with addition of substrate protein p53 and ATP. ATM mediates the phosphorylation of p53 at several positions, including at amino acid S15. The amount of phosphorylated p53 is determined with the aid of specific antibodies and the TR-FRET technique. The enzymatic ATM assay is carried out as TR-FRET (HTRF™, Cisbio Bioassays) based 384-well assay. In the first step, purified human recombinant ATM (human ATM, full length, GenBank ID NM_000051, expressed in a mammal cell line) is incubated in assay buffer for 15 minutes with the ATM inhibitor in various concentrations and without test substance as negative or neutral control. The assay buffer comprises 25 mM HEPES pH 8.0, 10 mM Mg(CH3COO)2, 1 mM MnCl2, 0,1% BSA and 0,01% Brij® 35, 5 mM dithiothreitol (DTT). […] In the second step, purified human recombinant cmyc-labelled p53 (human p53, full length, GenBank ID BC003596, expressed in Sf21 insect cells) and ATP are added, and the reaction mixture is incubated at 22° C. for 30-35 minutes. The pharmacologically relevant assay volume is 5 μl. […] The enzymatic reaction is stopped by addition of EDTA. […] After incubation, usually for 2 hours (between 1.5 and 15h), for signal development, the plates are analysed in a plate reader (EnVision, PerkinElmer) using TRF mode (and with laser excitation). […] The measurement data were processed by means of Genedata Screener software.

purified human recombinant ATM (ataxia telangiectasia mutated), full length, sequence (Q13315 whole entry, change not shown): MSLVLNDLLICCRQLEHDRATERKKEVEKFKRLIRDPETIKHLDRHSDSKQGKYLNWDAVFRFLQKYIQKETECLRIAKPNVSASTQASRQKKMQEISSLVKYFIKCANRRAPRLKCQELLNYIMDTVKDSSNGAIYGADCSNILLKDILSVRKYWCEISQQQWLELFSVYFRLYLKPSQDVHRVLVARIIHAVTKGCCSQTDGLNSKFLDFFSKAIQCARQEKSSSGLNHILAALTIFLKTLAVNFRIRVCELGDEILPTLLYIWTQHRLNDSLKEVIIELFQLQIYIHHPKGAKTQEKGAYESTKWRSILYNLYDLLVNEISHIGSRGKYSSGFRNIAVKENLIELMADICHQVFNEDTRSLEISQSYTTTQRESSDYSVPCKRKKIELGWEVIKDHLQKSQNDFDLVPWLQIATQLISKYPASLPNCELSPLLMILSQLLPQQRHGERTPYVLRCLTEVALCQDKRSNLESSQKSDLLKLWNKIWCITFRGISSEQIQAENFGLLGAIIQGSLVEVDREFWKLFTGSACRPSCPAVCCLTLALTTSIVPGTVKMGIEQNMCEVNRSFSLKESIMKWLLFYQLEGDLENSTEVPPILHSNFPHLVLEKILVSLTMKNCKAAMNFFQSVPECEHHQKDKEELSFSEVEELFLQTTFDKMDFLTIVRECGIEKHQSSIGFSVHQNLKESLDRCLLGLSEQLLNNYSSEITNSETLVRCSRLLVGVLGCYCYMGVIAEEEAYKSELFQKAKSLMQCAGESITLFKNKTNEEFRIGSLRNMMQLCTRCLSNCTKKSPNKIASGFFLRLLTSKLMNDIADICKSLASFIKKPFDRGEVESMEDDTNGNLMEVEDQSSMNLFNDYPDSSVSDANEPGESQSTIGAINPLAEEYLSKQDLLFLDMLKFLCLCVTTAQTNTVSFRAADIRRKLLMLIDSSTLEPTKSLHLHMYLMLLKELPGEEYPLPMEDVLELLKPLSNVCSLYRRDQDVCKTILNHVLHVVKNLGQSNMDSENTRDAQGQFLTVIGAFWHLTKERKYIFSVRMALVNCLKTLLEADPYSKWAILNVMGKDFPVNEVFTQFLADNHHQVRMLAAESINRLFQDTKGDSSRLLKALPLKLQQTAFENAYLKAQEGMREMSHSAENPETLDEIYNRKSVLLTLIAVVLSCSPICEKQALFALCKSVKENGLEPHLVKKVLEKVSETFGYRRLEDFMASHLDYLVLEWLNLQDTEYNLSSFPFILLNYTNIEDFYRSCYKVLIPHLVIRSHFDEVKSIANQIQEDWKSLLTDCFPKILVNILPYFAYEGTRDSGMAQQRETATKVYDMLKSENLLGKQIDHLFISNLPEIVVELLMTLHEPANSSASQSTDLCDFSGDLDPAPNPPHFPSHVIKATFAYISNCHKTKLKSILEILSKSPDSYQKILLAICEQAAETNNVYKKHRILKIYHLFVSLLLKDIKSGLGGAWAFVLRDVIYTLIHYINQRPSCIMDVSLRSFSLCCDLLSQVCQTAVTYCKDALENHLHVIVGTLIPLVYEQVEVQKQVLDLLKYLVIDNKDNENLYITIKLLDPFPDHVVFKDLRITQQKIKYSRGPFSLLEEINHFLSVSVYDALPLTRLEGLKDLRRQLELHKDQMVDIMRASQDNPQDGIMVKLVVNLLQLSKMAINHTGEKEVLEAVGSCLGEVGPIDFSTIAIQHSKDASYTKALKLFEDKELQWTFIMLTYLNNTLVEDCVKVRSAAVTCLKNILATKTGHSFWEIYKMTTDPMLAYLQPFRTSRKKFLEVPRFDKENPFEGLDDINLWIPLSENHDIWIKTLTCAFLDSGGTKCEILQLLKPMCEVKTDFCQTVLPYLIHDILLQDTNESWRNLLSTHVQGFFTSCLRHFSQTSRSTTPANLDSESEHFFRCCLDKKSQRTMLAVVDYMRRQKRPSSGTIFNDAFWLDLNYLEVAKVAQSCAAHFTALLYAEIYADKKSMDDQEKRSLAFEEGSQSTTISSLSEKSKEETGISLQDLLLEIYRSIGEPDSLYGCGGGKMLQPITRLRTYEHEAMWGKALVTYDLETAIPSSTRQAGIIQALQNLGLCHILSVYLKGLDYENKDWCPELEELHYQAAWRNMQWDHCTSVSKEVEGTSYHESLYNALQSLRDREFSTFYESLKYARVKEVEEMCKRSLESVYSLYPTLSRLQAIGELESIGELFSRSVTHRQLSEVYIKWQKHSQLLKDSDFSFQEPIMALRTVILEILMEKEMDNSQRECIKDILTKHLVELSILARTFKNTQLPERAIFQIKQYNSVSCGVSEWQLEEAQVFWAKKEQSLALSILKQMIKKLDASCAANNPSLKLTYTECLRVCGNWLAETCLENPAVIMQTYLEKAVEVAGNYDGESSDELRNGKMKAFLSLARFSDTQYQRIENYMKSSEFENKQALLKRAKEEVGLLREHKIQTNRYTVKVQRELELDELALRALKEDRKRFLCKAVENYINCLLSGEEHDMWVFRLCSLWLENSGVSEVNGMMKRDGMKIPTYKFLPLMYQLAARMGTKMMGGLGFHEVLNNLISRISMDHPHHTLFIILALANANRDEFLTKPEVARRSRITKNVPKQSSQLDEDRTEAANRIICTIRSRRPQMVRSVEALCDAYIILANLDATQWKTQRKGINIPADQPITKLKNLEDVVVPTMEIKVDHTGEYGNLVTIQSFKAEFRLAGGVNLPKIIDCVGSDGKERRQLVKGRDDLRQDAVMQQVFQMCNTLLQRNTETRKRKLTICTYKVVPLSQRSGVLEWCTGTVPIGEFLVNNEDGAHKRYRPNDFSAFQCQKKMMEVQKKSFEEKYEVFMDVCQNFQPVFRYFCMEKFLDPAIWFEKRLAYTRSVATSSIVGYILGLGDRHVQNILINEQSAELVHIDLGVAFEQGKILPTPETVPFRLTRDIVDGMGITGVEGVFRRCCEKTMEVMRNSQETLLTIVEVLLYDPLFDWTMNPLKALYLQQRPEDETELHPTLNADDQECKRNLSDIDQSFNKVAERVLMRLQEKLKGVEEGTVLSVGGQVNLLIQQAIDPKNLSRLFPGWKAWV

| Compound | pIC50 |
| --- | --- |
| COc1cc2ncc3c(c2cc1-c1cn(C)nn1)n(-c1cn(C)nc1C)c(=O)n3C [Compound Example 42, 1-(1,3-Dimethyl-1H-pyrazol-4-yl)-7-methoxy-3-methyl-8-(1-methyl-1H-1,2,3-triazol-4-yl)-1,3-dihydroimidazo-[4,5-c]quinolin-2-one] | > 8.00 |
| COc1cc2ncc3c(c2cc1-c1cnn(C)c1)n(-c1ccc(C#N)cn1)c(=O)n3C [Compound Example 48, 6-[7-Methoxy-3-methyl-8-(1-methyl-1H-pyrazol-4-yl)-2-oxo-2,3-dihydroimidazo-[4,5-c]quinolin-1-yl]-nicotinonitrile] | > 8.00 |
| COc1cc2ncc3c(c2cc1-c1cnn(C)c1)n(-c1ccc(F)cn1)c(=O)n3C [Compound Example 50, 1-(5-Fluoropyridin-2-yl)-7-methoxy-3-methyl-8-(1-methyl-1H-pyrazol-4-yl)-1,3-dihydroimidazo[4,5-c]-quinolin-2-one] | > 8.00 |
| COc1cc2ncc3c(c2cc1-c1cnn(C)c1)n(-c1ncccn1)c(=O)n3C [Compound Example 52, 7-Methoxy-3-methyl-8-(1-methyl-1H-pyrazol-4-yl)-1-pyrimidin-2-yl-1,3-dihydro-imidazo[4,5-c]quinolin-2-one] | > 8.00 |
| COc1cc2ncc3c(c2cc1-c1cnn(C)c1)n(-c1ccccn1)c(=O)n3C [Compound Example 56, 7-Methoxy-3-methyl-8-(1-methyl-1H-pyrazol-4-yl)-1-pyridin-2-yl-1,3-dihydro-imidazo[4,5-c]quinolin-2-one] | > 8.00 |
| COc1cc2ncc3c(c2cc1-c1cn(C)nn1)n(-c1c(C)cncc1F)c(=O)n3C [compound 63, 1-(3-Fluoro-5-methylpyridin-4-yl)-7-methoxy-3-methyl-8-(1-methyl-1H-1,2,3-triazol-4-yl)-1,3-dihydroimidazo-[4,5-c] quinolin-2-one] | > 8.00 |
| COc1cc2ncc3c(c2cc1-c1cn(C)nn1)n(-c1ccncc1F)c(=O)n3C [compound 64, 1-(3-Fluoropyridin-4-yl)-7-methoxy-3-methyl-8-(1-methyl-1H-1,2,3-triazol-4-yl)-1,3-dihydroimidazo-[4,5-c] quinolin-2-one] | > 8.00 |
| COc1cc2ncc3c(c2cc1-c1cc(N)n[nH]1)n(-c1ncccc1F)c(=O)n3C [compound 65, 8-(3-Amino-1H-pyrazol-5-yl)-1-(3-fluoro-2-pyridyl)-7-methoxy-3-methyl-imidazo-[4,5-c]quinolin-2-one] | > 9.00 |
| COc1cc2ncc3c(c2cc1-c1cnn(C)c1)n(-c1ccc2ccccc2n1)c(=O)n3C [compound 68, 7-Methoxy-3-methyl-8-(1-methyl-1H-pyrazol-4-yl)-1-quinolin-2-yl-1,3-dihydro-imidazo[4,5-c]quinolin-2-one] | > 8.00 |
| COc1cc2ncc3c(c2cc1-c1cnn(C)c1)n(-c1ccc2cc[nH]c2n1)c(=O)n3C [compound 69, 7-Methoxy-3-methyl-8-(1-methyl-1H-pyrazol-4-yl)-1-(1H-pyrrolo[2,3-b]pyridin-6-yl)1,3-dihydroimidazo-[4,5-c]quinolin-2-one] | > 9.00 |
| COc1cc2ncc3c(c2cc1-c1cnn(C)n1)n(-c1ncc(F)cc1F)c(=O)n3C [compound 101, 1-(3,5-Difluoropyridin-2-yl)-7-methoxy-3-methyl-8-(2-methyl-2H-1,2,3-triazol-4-yl)-1,3-dihydroimidazo-[4,5-c] quinolin-2-one] | > 7.30 |
| COc1cc2ncc3c(c2cc1-c1cnn(C)n1)n(-c1cn(C)nc1C)c(=O)n3C [compound 102, 1-(1,3-Dimethyl-1H-pyrazol-4-yl)-7-methoxy-3-methyl-8-(2-methyl-2H-1,2,3-triazol-4-yl)-1,3-dihydroimidazo-[4,5-c]quinolin-2-one] | > 7.30 |
| CCn1cc(-c2cc3c(cc2OC)ncc2c3n(-c3ccncc3OC)c(=O)n2C)cn1 [compound 104, 8-(1-Ethyl-1H-pyrazol-4-yl)-7-methoxy-1-(3-methoxy-pyridin-4-yl)-3-methyl-1,3-dihydroimidazo[4,5-c] quinolin-2-one] | > 8.00 |
| COc1cnc(-n2c(=O)n(C)c3cnc4cc(OC)c(-c5cn(C)nc5C)cc4c32)c(F)c1 [compound 106, 8-(1,3-Dimethyl-1H-pyrazol-4-yl)-1-(3-fluoro-5-methoxypyridin-2-yl)-7-methoxy-3-methyl-1,3-dihydroimidazo[4,5-c]-quinolin-2-one] | > 9.00 |
| COc1cc2ncc3[nH]c(=O)n(-c4ncc(F)cc4F)c3c2cc1-c1cnn(C)c1 [compound 107, 1-(3,5-Difluoropyridin-2-yl)-7-methoxy-8-(1-methyl-1H-pyrazol-4-yl)-1,3-dihydro-imidazo[4,5-c]quinolin-2-one] | > 9.00 |
| COc1cnc(-n2c(=O)n(C)c3cnc4cc(OC)c(-c5ccn[nH]5)cc4c32)c(F)c1 [compound 109, 1-(3-Fluoro-5-methoxy-pyridin-2-yl)-7-methoxy-3-methyl-8-(2H-pyrazol-3-yl)-1,3-dihydroimidazo[4,5-c] quinolin-2-one] | > 8.00 |
| CCn1cc(-c2cc3c(cc2OC)ncc2c3n(-c3ncc(OC)cc3F)c(=O)n2C)cn1 [compound 111, 8-(1-Ethyl-1H-pyrazol-4-yl)-1-(3-fluoro-5-methoxy-pyridin-2-yl)-7-methoxy-3-methyl-1,3-dihydroimidazo-[4,5-c] quinolin-2-one] | > 8.00 |
| CCc1cncc(F)c1-n1c(=O)n(C)c2cnc3cc(OC)c(-c4cnn(C)n4)cc3c21 [compound 112, 1-(3-Ethyl-5-fluoropyridin-4-yl)-7-methoxy-3-methyl-8-(2-methyl-2H-1,2,3-triazol-4-yl)-1,3-dihydroimidazo-[4,5-c] quinolin-2-one] | > 8.00 |
| CCOc1cnc(-n2c(=O)n(C)c3cnc4cc(OC)c(-c5cnn(C)c5)cc4c32)c(F)c1 [compound 113, 1-(5-Ethoxy-3-fluoropyridin-2-yl)-7-methoxy-3-methyl-8-(1-methyl-1H-pyrazol-4-yl)-1,3-dihydroimidazo[4,5-c]-quinolin-2-one] | > 9.00 |
| COc1cnc(-n2c(=O)[nH]c3cnc4cc(OC)c(-c5cnn(C)c5)cc4c32)c(F)c1 [compound 115, 1-(3-Fluoro-5-methoxy-pyridin-2-yl)-7-methoxy-8-(1-methyl-1H-pyrazol-4-yl)-1,3-dihydroimidazo[4,5-c]-quinolin-2-one] | > 8.00 |
| COc1cc2ncc3[nH]c(=O)n(-c4c(F)cncc4OC)c3c2cc1-c1cnn(C)c1 [compound 116, 1-(3-Fluoro-5-methoxy-pyridin-4-yl)-7-methoxy-8-(1-methyl-1H-pyrazol-4-yl)-1,3-dihydroimidazo[4,5-c]-quinolin-2-one] | > 8.00 |
| COc1cc2ncc3c(c2cc1-c1cnn(C)c1)n(-c1ncc(Cl)cc1F)c(=O)n3C [compound 119, 1-(5-Chloro-3-fluoropyridin-2-yl)-7-methoxy-3-methyl-8-(1-methyl-1H-pyrazol-4-yl)-1,3-dihydroimidazo[4,5-c]-quinolin-2-one] | > 9.00 |
| COc1cc2ncc3c(c2cc1-c1ccn[nH]1)n(-c1c(F)cncc1OC)c(=O)n3C [compound 124, 1-(3-Fluoro-5-methoxy-pyridin-4-yl)-7-methoxy-3-methyl-8-(2H-pyrazol-3-yl)-1,3-dihydroimidazo[4,5-c] quinolin-2-one] | > 7.30 |
| COc1cc2ncc3c(c2cc1-c1cnn(C)n1)n(-c1c(F)cncc1OC)c(=O)n3C [compound 127, 1-(3-Fluoro-5-methoxy-pyridin-4-yl)-7-methoxy-3-methyl-8-(2-methyl-2H-1,2,3-triazol-4-yl)-1,3-dihydroimidazo[4,5-c] quinolin-2-one] | > 8.00 |
| COc1cnc(-n2c(=O)n(C)c3cnc4cc(OC)c(-c5cnn[nH]5)cc4c32)c(F)c1 [compound 128, 1-(3-Fluoro-5-methoxy-pyridin-2-yl)-7-methoxy-3-methyl-8-(3H-1,2,3-triazol-4-yl)-1,3-dihydroimidazo-[4,5-c] quinolin-2-one] | > 8.00 |
| COc1cc2ncc3[nH]c(=O)n(-c4c(F)cncc4OC)c3c2cc1-c1cn(C)nc1C [compound 129, 8-(1,3-Dimethyl-1H-pyrazol-4-yl)-1-(3-fluoro-5-methoxy-pyridin-4-yl)-7-methoxy-1,3-dihydroimidazo[4,5-c]-quinolin-2-one] | > 9.00 |
| CCn1cc(-n2c(=O)n(C)c3cnc4cc(OC)c(-c5cnn(C)c5)cc4c32)c(C)n1 [compound 130, 1-(1-Ethyl-3-methyl-1H-pyrazol-4-yl)-7-methoxy-3-methyl-8-(1-methyl-1H-pyrazol-4-yl)-1,3-dihydro-imidazo[4,5-c]quinolin-2-one] | > 9.00 |
| COc1cc2ncc3c(c2cc1-c1cn(C)nn1)n(-c1c(F)cncc1OC)c(=O)n3C [compound 131, 1-(3-Fluoro-5-methoxy-pyridin-4-yl)-7-methoxy-3-methyl-8-(1-methyl-1H-1,2,3-triazol-4-yl)-1,3-dihydroimidazo[4,5-c]-quinolin-2-one] | > 8.00 |
